According to PubChem BioAssay (NCI):
“And” between values parts separate entries of the source, which are not always exact repeats. Identical values can stand only once.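 Five compound concentrations were applied to cells in 96-well plates for 48 hours; endpoints were derived by simple linear interpolation of the resulting dose-response curve. GI50 = concentration required for 50% inhibition of growth. At the TGI there is no net growth.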

Experiments:
Test in all cases: NCI tumour cell line growth inhibition, 48 h
786-0 renal = system: 786-0 renal
A498 renal = system: A498 renal
A549 NSCLC = system: A549 NSCLC
ACHN renal = system: ACHN renal
BT-549 breast = system: BT-549 breast
CAKI-1 renal = system: CAKI-1 renal
CCRF-CEM leukemia = system: CCRF-CEM leukemia
COLO 205 colon = system: COLO 205 colon
DU-145 prostate = system: DU-145 prostate
EKVX NSCLC = system: EKVX NSCLC
HCC-2998 colon = system: HCC-2998 colon
HCT-116 colon = system: HCT-116 colon
HCT-15 colon = system: HCT-15 colon
HL-60(TB) leukemia = system: HL-60(TB) leukemia
HOP-62 NSCLC = system: HOP-62 NSCLC
HOP-92 NSCLC = system: HOP-92 NSCLC
HS 578T breast = system: HS 578T breast
HT29 colon = system: HT29 colon
IGROV1 ovarian = system: IGROV1 ovarian
K-562 leukemia = system: K-562 leukemia
KM12 colon = system: KM12 colon
LOX IMVI melanoma = system: LOX IMVI melanoma
M14 melanoma = system: M14 melanoma
MALME-3M melanoma = system: MALME-3M melanoma
MCF7 breast = system: MCF7 breast
MDA-MB-231 breast = system: MDA-MB-231 breast
MDA-MB-435 = system: MDA-MB-435
MOLT-4 leukemia = system: MOLT-4 leukemia
NCI-H226 lung = system: NCI-H226 lung
NCI-H23 lung = system: NCI-H23 lung
NCI-H460 lung = system: NCI-H460 lung
NCI-H522 lung = system: NCI-H522 lung
NCI/ADR-RES ovarian = system: NCI/ADR-RES ovarian
OVCAR-3 ovarian = system: OVCAR-3 ovarian
OVCAR-4 ovarian = system: OVCAR-4 ovarian
OVCAR-5 ovarian = system: OVCAR-5 ovarian
OVCAR-8 ovarian = system: OVCAR-8 ovarian
PC-3 prostate = system: PC-3 prostate
RPMI-8226 leukemia = system: RPMI-8226 leukemia
RXF 393 renal = system: RXF 393 renal
SF-268 CNS = system: SF-268 CNS
SF-295 CNS = system: SF-295 CNS
SF-539 CNS = system: SF-539 CNS
SK-MEL-2 melanoma = system: SK-MEL-2 melanoma
SK-MEL-28 melanoma = system: SK-MEL-28 melanoma
SK-MEL-5 melanoma = system: SK-MEL-5 melanoma
SK-OV-3 ovarian = system: SK-OV-3 ovarian
SN12C renal = system: SN12C renal
SNB-19 CNS = system: SNB-19 CNS
SNB-75 CNS = system: SNB-75 CNS
SR leukemia = system: SR leukemia
SW-620 colon = system: SW-620 colon
T-47D breast = system: T-47D breast
TK-10 renal = system: TK-10 renal
U251 CNS = system: U251 CNS
UACC-257 melanoma = system: UACC-257 melanoma
UACC-62 melanoma = system: UACC-62 melanoma
UO-31 renal = system: UO-31 renal

In the case of `COc1cccc2cc(-c3nc(C4CCC(C(=O)O)CC4)n4ncnc(N)c34)[nH]c12` (stereo unspecified), the GI50 (786-0 renal) is reported as 344 nM and 488 nM, the TGI (786-0 renal) is reported as 6570 nM and 5440 nM and the GI50 (A498 renal) is reported as 67.7 nM and 60.1 nM. The TGI (A498 renal) was 407 nM and 365 nM, the GI50 (A549 NSCLC) was 1210 nM and 1970 nM and the TGI (A549 NSCLC) was 11800 nM and > 10000 nM. The GI50 (ACHN renal) was 420 nM and 1030 nM, the TGI (ACHN renal) was 15500 nM and > 10000 nM and the GI50 (BT-549 breast) was 93.9 nM and 168 nM. For the same molecule, the TGI (BT-549 breast) was 1060 nM and 1490 nM, the GI50 (CAKI-1 renal) was 330 nM and 326 nM and the TGI (CAKI-1 renal) was 2790 nM and 3990 nM. For the same molecule, the GI50 (CCRF-CEM leukemia) was 247 nM and 816 nM, the TGI (CCRF-CEM leukemia) was 16200 nM and > 10000 nM and the GI50 (COLO 205 colon) was 1070 nM and 542 nM. For the same molecule, the TGI (COLO 205 colon) was 13500 nM and > 8260 nM, the GI50 (DU-145 prostate) was 1220 nM and 1630 nM and the TGI (DU-145 prostate) was 24300 nM and > 10000 nM. The GI50 (EKVX NSCLC) was 478 nM and 1030 nM, the TGI (EKVX NSCLC) was 5130 nM and > 10000 nM and the GI50 (HCC-2998 colon) was 451 nM and 729 nM. The TGI (HCC-2998 colon) was 35300 nM and > 10000 nM, the GI50 (HCT-116 colon) was 824 nM and 1080 nM and the TGI (HCT-116 colon) was over 100000 nM. For the same molecule, the GI50 (HCT-15 colon) was 558 nM and 973 nM, the TGI (HCT-15 colon) was over 100000 nM and the GI50 (HL-60(TB) leukemia) was 3130 nM and > 3550 nM. The TGI (HL-60(TB) leukemia) was 25700 nM and > 10000 nM, the GI50 (HOP-62 NSCLC) was 305 nM and 338 nM and the TGI (HOP-62 NSCLC) was 3640 nM and 4830 nM. For the same molecule, the GI50 (HOP-92 NSCLC) was 15.8 nM and 32.7 nM, the TGI (HOP-92 NSCLC) was 98.8 nM and 358 nM and the GI50 (HS 578T breast) was 135 nM and 110 nM. The TGI (HS 578T breast) was 627 nM and 979 nM, the GI50 (HT29 colon) was 1200 nM and 2520 nM and the TGI (HT29 colon) was 79900 nM and > 10000 nM. For the same molecule, the GI50 (IGROV1 ovarian) was 192 nM and 237 nM, the TGI (IGROV1 ovarian) was 1680 nM and 1970 nM and the GI50 (K-562 leukemia) was 499 nM and 2630 nM. The TGI (K-562 leukemia) was over 100000 nM, the GI50 (KM12 colon) was 330 nM and 590 nM and the TGI (KM12 colon) was over 100000 nM. The GI50 (LOX IMVI melanoma) was 368 nM and 825 nM, the TGI (LOX IMVI melanoma) was 4850 nM and > 10000 nM and the GI50 (M14 melanoma) was 219 nM and 360 nM. The TGI (M14 melanoma) was 3760 nM and > 7220 nM, the GI50 (MALME-3M melanoma) was 29.6 nM and 75.2 nM and the TGI (MALME-3M melanoma) was 354 nM and 675 nM. For the same molecule, the GI50 (MCF7 breast) was 155 nM and 220 nM, the TGI (MCF7 breast) was over 35700 nM and the GI50 (MDA-MB-231 breast) was 390 nM and 348 nM. The TGI (MDA-MB-231 breast) was 23500 nM and > 10000 nM, the GI50 (MDA-MB-435) was 288 nM and 531 nM and the TGI (MDA-MB-435) was 3080 nM and 6840 nM. For the same molecule, the GI50 (MOLT-4 leukemia) was 400 nM and 767 nM, the TGI (MOLT-4 leukemia) was over 40800 nM and the GI50 (NCI-H226 lung) was 347 nM and 397 nM. The TGI (NCI-H226 lung) was over 7790 nM, the GI50 (NCI-H23 lung) was 634 nM and 734 nM and the TGI (NCI-H23 lung) was 18400 nM and > 10000 nM. The GI50 (NCI-H460 lung) was 253 nM and 445 nM, the TGI (NCI-H460 lung) was 17700 nM and > 10000 nM and the GI50 (NCI-H522 lung) was 71.2 nM and 209 nM. The TGI (NCI-H522 lung) was 1920 nM and > 8470 nM, the GI50 (NCI/ADR-RES ovarian) was 406 nM and 804 nM and the TGI (NCI/ADR-RES ovarian) was 10300 nM and > 10000 nM. For the same molecule, the GI50 (OVCAR-3 ovarian) was 253 nM and 394 nM, the TGI (OVCAR-3 ovarian) was 4270 nM and > 7870 nM and the GI50 (OVCAR-4 ovarian) was 155 nM and 288 nM. For the same molecule, the TGI (OVCAR-4 ovarian) was 2000 nM and 3280 nM, the GI50 (OVCAR-5 ovarian) was 289 nM and 658 nM and the TGI (OVCAR-5 ovarian) was over 100000 nM. For the same molecule, the GI50 (OVCAR-8 ovarian) was 371 nM and 642 nM, the TGI (OVCAR-8 ovarian) was 3780 nM and > 10000 nM and the GI50 (PC-3 prostate) was 129 nM and 342 nM. For the same molecule, the TGI (PC-3 prostate) was 2030 nM and 4420 nM, the GI50 (RPMI-8226 leukemia) was 185 nM and 303 nM and the TGI (RPMI-8226 leukemia) was 3020 nM and > 5200 nM. For the same molecule, the GI50 (RXF 393 renal) was 186 nM and 299 nM, the TGI (RXF 393 renal) was 954 nM and 3270 nM and the GI50 (SF-268 CNS) was 294 nM and 301 nM. The TGI (SF-268 CNS) was 19500 nM and > 10000 nM, the GI50 (SF-295 CNS) was 233 nM and 647 nM and the TGI (SF-295 CNS) was 2100 nM and 4360 nM. For the same molecule, the GI50 (SF-539 CNS) was 309 nM and 516 nM, the TGI (SF-539 CNS) was 2710 nM and 4090 nM and the GI50 (SK-MEL-2 melanoma) was 108 nM and 347 nM. For the same molecule, the TGI (SK-MEL-2 melanoma) was 633 nM and 2230 nM, the GI50 (SK-MEL-28 melanoma) was 175 nM and 169 nM and the TGI (SK-MEL-28 melanoma) was 1810 nM and 1400 nM. The GI50 (SK-MEL-5 melanoma) was 313 nM and 790 nM, the TGI (SK-MEL-5 melanoma) was 4190 nM and 5700 nM and the GI50 (SK-OV-3 ovarian) was 223 nM and 278 nM. The TGI (SK-OV-3 ovarian) was 1750 nM and 2210 nM, the GI50 (SN12C renal) was 203 nM and 413 nM and the TGI (SN12C renal) was over 100000 nM. The GI50 (SNB-19 CNS) was 1340 nM and 1490 nM, the TGI (SNB-19 CNS) was over 100000 nM and the GI50 (SNB-75 CNS) was 95.2 nM and 152 nM. The TGI (SNB-75 CNS) was 1030 nM and 1300 nM, the GI50 (SR leukemia) was 295 nM and 310 nM and the TGI (SR leukemia) was over 36300 nM. For the same molecule, the GI50 (SW-620 colon) was 1230 nM and 1490 nM, the TGI (SW-620 colon) was over 100000 nM and the GI50 (T-47D breast) was 45 nM and 50.5 nM. The TGI (T-47D breast) was 442 nM and 356 nM, the GI50 (TK-10 renal) was 150 nM and 411 nM and the TGI (TK-10 renal) was 1630 nM and 6110 nM. The GI50 (U251 CNS) was 666 nM and 1260 nM, the TGI (U251 CNS) was over 100000 nM and the GI50 (UACC-257 melanoma) was 198 nM and 378 nM. The TGI (UACC-257 melanoma) was 2100 nM and 4190 nM, the GI50 (UACC-62 melanoma) was 180 nM and 188 nM and the TGI (UACC-62 melanoma) was 1510 nM and 1830 nM. The GI50 (UO-31 renal) was 129 nM and 210 nM and the TGI (UO-31 renal) was 2130 nM and 3350 nM.
